According to PMC11110727, “Exploiting thiol-functionalized benzosiloxaboroles for achieving diverse substitution patterns – synthesis, characterization and biological evaluation of promising antibacterial agents” (RSC Medicinal Chemistry, 2024):
In brackets after ≈: the same amount, converted by molar mass. Like-named read-outs stand apart in the source and are kept apart here.

What was measured:
E. faecium ATCC 6057 = test: Antibacterial activity: MIC/MBC determination and disc-diffusion; format: cell-based; conditions: Enterococcus faecium, ATCC6057; E. faecium ATCC 6057; read-out: MIC
Method in brief: (§1)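 Compounds in DMSO were screened by disc diffusion and MIC determination (EUCAST, CLSI), with bactericidal and fungicidal concentrations obtained per CLSI. Fluconazole served as the antifungal reference and linezolid as the Gram-positive reference.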

E. faecalis ATCC 29212 = test: as above; format: cell-based; conditions: Enterococcus faecalis, ATCC29212; E. faecalis ATCC 29212; read-out: MIC
Method in brief: as §1

[1] = tested on: S. epidermidis ATCC 12228; test: as above; format: cell-based; conditions: Staphylococcus epidermidis, ATCC12228, S. epidermidis ATCC 12228
Method in brief: as §1

[2] = tested on: Staphylococcus aureus, MSSA and MRSA strains; test: Antibacterial activity against S. aureus strains (text summaries); format: cell-based; conditions: for MIC: Staphylococcus aureus
Method: Direct antimicrobial activity was determined against the following standard strains: (1) Gram-positive cocci: methicillin-sensitive Staphylococcus aureus ATCC 6538P (MSSA), methicillin-resistant S. aureus subsp. aureus ATCC 43300 (MRSA), S. epidermidis ATCC 12228, Enterococcus faecium ATCC 6057, E. faecalis ATCC 29212, Bacillus subtilis ATCC 6633; (2) Gram-negative bacteria from Enterobacteriales order: Klebsiella pneumoniae ATCC 13883, Escherichia coli ATCC 25922, Enterobacter cloacae DSM 6234, Proteus mirabilis ATCC 12453, Serratia marcescens ATCC 13880; (3) Gram-negative non-fermentative rods: Acinetobacter baumannii ATCC 19606, Pseudomonas aeruginosa ATCC 27853, Stenotrophomonas maltophilia ATCC 12714, S. maltophilia ATCC 13637, Burkholderia cepacia ATCC 25416, Bordetella bronchiseptica ATCC 4617; (4) yeasts: Candida albicans ATCC 90028, C. krusei ATCC 6258, C. parapsilosis ATCC 22019, C. tropicalis (Castellani) Berkhout ATCC 750, C. tropicalis IBA 171, C. guilliermondii IBA 155, and Saccharomyces cerevisiae ATCC 9763. Moreover, 5 clinical strains of methicillin-resistant S. aureus were also included: NMI 664 K, NMI 1576 K, NMI 1712 K, NMI 1991 K, and NMI 2541 K. All strains were stored at −80 °C. Prior to testing, each bacterial strain was subcultured twice on tryptic soy agar TSA (bioMerieux) medium and yeast strains on Sabouraud dextrose agar (bioMerieux) for 24–48 h at 30 °C to ensure viability. The antimicrobial activity was evaluated as previously described[26] by the disc-diffusion method and the MIC determination assays according to the EUCAST (ref. [71] and [72]) and CLSI (ref. [53] and [73]) recommendations. Assessment of bactericidal (MBC) and fungicidal (MFC) activities was performed according to the CLSI recommendations.[54,74] The following reference agents were used: fluconazole (in the case of fungi), linezolid (for Gram-positive bacteria), and nitrofurantoin (for Gram-negative rods). The new benzosiloxaboroles were dissolved in DMSO (Sigma).

[3] = tested on: Human normal lung fibroblasts MRC-5; test: MTT-based viability (cytotoxicity) assay
Method in brief: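 MRC-5 pd30 human lung fibroblasts in supplemented MEME at 37 °C, 5% CO2; viability by MTT, absorbance 570 nm, triplicate, as percent of control cells. Selectivity index taken as IC50/MIC against S. aureus MRSA strains.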

S. aureus NMI 664 K MRSA = test: Antibacterial activity against clinical MRSA: MIC/MBC; format: cell-based; conditions: Staphylococcus aureus, NMI 664 K MRSA
Method in brief: (§2)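 MIC and disc-diffusion testing used EUCAST and CLSI guidance, and bactericidal and fungicidal endpoints used CLSI methods. Before testing, yeasts were grown twice on Sabouraud dextrose agar and bacteria twice on TSA, 24–48 h at 30 °C. DMSO was the compound solvent, with linezolid (Gram-positive) and fluconazole (fungi) as references.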

[4] = tested on: S. aureus NMI 1576 K MRSA; test: as above; format: cell-based; conditions: Staphylococcus aureus, NMI 1576 K MRSA
Method in brief: as §2

[5] = tested on: S. aureus NMI 2541 K MRSA; test: as above; format: cell-based; conditions: Staphylococcus aureus, NMI 2541 K MRSA
Method in brief: as §2

[6] = tested on: S. aureus NMI 1991 K MRSA; test: as above; format: cell-based; conditions: Staphylococcus aureus, NMI 1991 K MRSA
Method in brief: as §2

[7] = tested on: S. aureus NMI 1712 K MRSA; test: as above; format: cell-based; conditions: Staphylococcus aureus, NMI 1712 K MRSA
Method in brief: as §2

[8] = Determination of acidity constants (pKa) by potentiometric titration; conditions: MeOH/H2O (1:1 v/v) solution
Method: 0.1 M NaOH in H2O/MeOH (1 : 1 v/v).
The acidity constants of benzosiloxaboroles 1e, 2e, 6, 20 and 22–24 were determined by standard pH titration with 0.05 M aq. NaOH. The measurements were performed using a thermostated (25.0 °C) glass vessel equipped with a magnetic stirrer and a 10 mL burette. Prior to the measurement, the pH glass electrode was calibrated using borax and phosphate buffers. A solution of the analyzed compound (ca. 20–40 mg) in a mixture of MeOH/H2O (v/v 1 : 1, 30 mL) was titrated until the pH of the solution exceeded the value of 12.0.

[9] = read-out: MBC (first MBC where Eagle effect)
[10] = read-out: second MBC (Eagle effect)

For `C[Si]1(C)OB(O)c2cc(F)c(SCCS(=O)(=O)c3ccccc3)c(F)c21` [Compound 20, 5,7-Difluoro-1,1-dimethyl-6-((2-(phenylsulfonyl)ethyl)thio)benzo[c][1,2,5]oxasilaborol-3(1H)-ol], the MIC (E. faecium ATCC 6057) was 100 mg/L (≈ 241 µM), the MIC (E. faecalis ATCC 29212) was 100 mg/L (≈ 241 µM) and the MBC [1] was 400 mg/L (≈ 965 µM). For the same molecule, the MIC ([1]; read-out: MIC) was 25 mg/L (≈ 60.3 µM), the “Eagle effect (paradoxical growth) during MBC determination” value ([2]; S. aureus ATCC 6538P and five MRSA clinical strains) was “Eagle effect” and the MIC ([2]; both MSSA and MRSA strains, read-out: MIC values against Staphylococcus aureus) was 1.56 to 12.5 mg/L (≈ 3.77 to 30.2 µM). The MIC ([2]; standard and five clinical MRSA strains (Table 4), read-out: MIC (MRSA)) was 3.12 to 6.25 mg/L (≈ 7.53 to 15.1 µM), the “viability of MRC-5” value ([3]; 6.25 µg·mL−1, 48 h) was 101.2±1.7 % of control ± SD and the “viability of MRC-5” value ([3]; 12.5 µg·mL−1, 48 h) was 95.3±1.0 % of control ± SD. For the same molecule, the “viability of MRC-5” value ([3]; 25 µg·mL−1, 48 h) was 93.5±2.1 % of control ± SD, the “viability of MRC-5” value ([3]; 50 µg·mL−1, 48 h) was 84.0±1.5 % of control ± SD and the “viability of MRC-5” value ([3]; 100 µg·mL−1, 48 h) was 68.5±4.9 % of control ± SD. The “viability of MRC-5” value ([3]; 200 µg·mL−1, 48 h) was 38.8±4.8 % of control ± SD, the “viability of MRC-5” value ([3]; 400 µg·mL−1, 48 h) was 3.4±0.9 % of control ± SD and the IC50 ([3]; Homo sapiens, MRC5, 48 h) was 122 mg/L (≈ 294 µM). For the same molecule, the MBC (S. aureus NMI 664 K MRSA; [9]) was 12.5 mg/L (≈ 30.2 µM), the MIC (S. aureus NMI 664 K MRSA; read-out: MIC) was 6.25 mg/L (≈ 15.1 µM) and the MBC (S. aureus NMI 664 K MRSA; [10]) was 400 mg/L (≈ 965 µM). The MBC [4, 9] was 12.5 mg/L (≈ 30.2 µM), the MIC ([4]; read-out: MIC) was 6.25 mg/L (≈ 15.1 µM) and the MBC [4, 10] was 400 mg/L (≈ 965 µM). It also gave an MBC [5, 9] of 25 mg/L (≈ 60.3 µM), an MIC ([5]; read-out: MIC) of 6.25 mg/L (≈ 15.1 µM) and an MBC [5, 10] of 400 mg/L (≈ 965 µM). It also gave an MBC [6, 9] of 12.5 mg/L (≈ 30.2 µM), an MIC ([6]; read-out: MIC) of 6.25 mg/L (≈ 15.1 µM) and an MBC [6, 10] of 400 mg/L (≈ 965 µM). The MBC [7, 9] was 12.5 mg/L (≈ 30.2 µM), the MIC ([7]; read-out: MIC) was 6.25 mg/L (≈ 15.1 µM) and the MBC [7, 10] was 400 mg/L (≈ 965 µM). For the same molecule, the pKa [8] was 5.7.
